Values after ≈ are worked out from the molar mass of the structure shown. Active and inactive are the calls of the source. No cut-off for these calls is given here.
What was measured:
Bacillus subtilis [1] = assay: Antibacterial activity against Bacillus subtilis; assay type: functional
L1210 = assay: Cytotoxicity against mouse L1210 cells; assay type: functional, cell-based
Staphylococcus aureus [2] = assay: Antibacterial activity against Staphylococcus aureus; assay type: functional
KB = assay: Cytotoxicity against human KB cells; assay type: functional, cell-based
Micrococcus luteus [3] = assay: Antibacterial activity against Sarcina lutea; assay type: functional
Staphylococcus aureus [4] = assay: Antibacterial activity against Staphylococcus aureus at 260 ug/ml; assay type: functional, organism-based
Micrococcus luteus [5] = assay: Antibacterial activity against Sarcina lutea at 260 ug/ml; assay type: functional, organism-based
Bacillus subtilis [6] = assay: Antibacterial activity against Bacillus subtilis at 260 ug/ml; assay type: functional, organism-based

| SMILES | MIC (Bacillus subtilis [1]) [µg/mL] | IC50 (L1210) [µg/mL] | MIC (Staphylococcus aureus [2]) [µg/mL] | IC50 (KB) [µg/mL] | MIC (Micrococcus luteus [3]) [µg/mL] | Activity (Staphylococcus aureus [4]) | Activity (Micrococcus luteus [5]) | Activity (Bacillus subtilis [6]) |
| --- | --- | --- | --- | --- | --- | --- | --- | --- |
| CC1CC1C(C)CC(O)C(O)(CO)[C@H]1CC[C@H]2[C@@H]3CC[C@H]4CC(=O)CC[C@]4(C)[C@H]3C[C@@H](O)[C@]12C (stereo partly drawn) [XESTOKEROL A] | 16 (≈ 33.6 µM) | 2.1 (≈ 4.41 µM) | 16 (≈ 33.6 µM) | 4.4 (≈ 9.23 µM) | 16 (≈ 33.6 µM) |  |  |  |
| CC(CCC(C)(O)[C@H]1CC[C@H]2[C@@H]3[C@H](O)C[C@H]4CC(=O)CC[C@]4(C)[C@H]3C[C@@H](O)[C@]12C)C1CC1C (stereo partly drawn) [XESTOKEROL B] |  | 2.2 (≈ 4.78 µM) |  | 4.6 (≈ 9.98 µM) |  | inactive | inactive | inactive |
| C=C(C(=O)CC(C)C1CC1C)[C@H]1CC[C@H]2[C@@H]3CC[C@H]4CC(=O)CC[C@]4(C)[C@H]3C[C@@H](O)[C@]12C (stereo partly drawn) [XESTOKEROL C] |  | 0.78 (≈ 1.77 µM) |  | > 10 | 66 (≈ 150 µM) |  |  |  |

Source: ChEMBL document CHEMBL1148190, “Xestokerols A, B, and C, New C 29 Steroids with a Cyclopropane Ring from the Okinawan Marine Sponge Xestospongia sp” (J Nat Prod, 1993)
